From publication PMC5590943, “Pharmacological characterisation of S 47445, a novel positive allosteric modulator of AMPA receptors” (PLoS ONE, 2017)

Assays:
K^+V channel = test: Binding assay, [125I]α-dendrotoxin
male OFA rats = test: Novel object recognition test in rats; format: in vivo, rat; settings: 3 administrations
Method: (§1) Novel object recognition and T-maze studies were conducted respectively in male OFA rats (150–175 g, Charles River, Saint-Germain-Nuelles, France) and male C57Bl/6 mice (5.5–6.5 month-old, Charles River, Saint-Germain-Nuelles, France). Animals were housed in collective cages with continuous access to tap water and food on a 12 h light-dark cycle, in a temperature-controlled (21 ± 1°C) and ventilated room. On completion of studies subjects were euthanized by either CO2 inhalation or intraperitoneal (i.p.) lethal pentobarbital injection. The novel object recognition test was used as the primary in vivo screening assay to identify AMPA-PAMs. The T-maze task was performed using a modified continuous performance procedure previously described in mice.
S 47445 was suspended either in distilled water with Tween80® 2% for oral administration or saline with Tween80® 2% for i.p. administration. Tween80® was obtained from Sigma-Aldrich, Lyon, France. S 47445 was synthetized by Servier, Suresnes, France. […]
The novel object recognition paradigm was developed by Ennaceur and Delacour, 1988 and aimed to evaluate potential procognitive effects of drugs on a form of recognition (episodic-like) memory in the rat. […] Consequently, recognition is measured by the time spent by rats in exploring two different objects, one being familiar and the other being new.
Animals were submitted to three phases of the test. […] Each rat was placed in the arena, and the time spent actively exploring the objects was recorded. […] After 24 h, during the third phase (session of recognition), each rat was again placed in the apparatus for 3 min in the presence of one of the familiar (Fam) objects and a new (New) object, and the time spent exploring both objects was again recorded. […] The difference in duration of exploration of the two objects (New-Fam) and the sum of duration of exploration on session of recognition were determined. Statistical analysis was performed on the discrimination index calculated as (New-Fam)/(Fam+New) using a one-way ANOVA using SAS v9.2 software (SAS Institute, Cary, NC). […]

male C57Bl/6 mice = test: Spontaneous alternation in a T-maze in mice; format: in vivo, mouse; settings: 180 s inter-trial delay
Method: as §1, with “mice. […]” for “mice.”
Behavioral testing was conducted in a T-shaped maze made of grey Plexiglas using mice. […] Photoelectric cells detected the position of the mouse on the maze. […]
Both alternation performance and latency of entry were assessed. […] The successive sequence of visits for the 7 first trials determined the level of alternation. A percentage of alternation was calculated for each mouse, and corresponded to the number of alternations performed relative to the number maximal of alternation (n = 6). […] The mean latency of entry from trial 2 to trial 7 was calculated for each mouse. […]

male NMRI mice = test: Functional observation battery in mice; format: in vivo, mouse
Method: The effect of 47445 after high doses administration was assessed on general behaviour in mice. Male NMRI mice (18–22 g, Janvier Labs, Le Genest Saint Isle, France) were used and placed individually for habituation, 15 min before administration. Room temperature was maintained at 20.9°C during experimentation. At T0 min, body temperature was monitored via a rectal probe connected to a computer (Viewpoint). Mice were then orally treated with S 47445 (30, 100 and 300 mg/kg) or vehicle. […] Delta of body temperature compared to T0 min (°C) was calculated. Groups were compared for body temperature at T0 min with a one-way ANOVA followed by Tukey’s pair-wise comparison post hoc tests. The treatment effect on delta of body temperature compared to T0 min was analysed using a two-way ANOVA followed by Dunnett’s post hoc tests. Analyses were performed using SAS v9.2 software (SAS Institute, Cary, NC).

Human AMPA receptors = test: AMPA-evoked currents, Xenopus laevis oocytes injected with human hippocampal poly(A+) mRNA; format: cell-based; settings: geometric mean
Method: Compounds were tested by bath application.

O=C1c2cc3nnn(CCc4cccc(F)c4)c(=O)c3cc2OCN1C1CC1 [S 47445, 8-cyclopropyl-3-[2-(3-fluorophenyl)ethyl]-7,8-dihydro-3H-[1,3]oxazino[6,5-g][1,2,3]benzotriazine-4,9-dione]
% Inhibition of control specific binding (K^+V channel; S 47445 1.0E-05 M): -2%
% Inhibition of control specific binding (K^+V channel; S 47445 1.0E-07 M): -6%
Discrimination index versus vehicle (male OFA rats; 0.3 mg/kg p.o., p ≤ 0.01): significantly increased the discrimination index
Discrimination index versus vehicle (male OFA rats; 1 mg/kg p.o., tendency of increase): did not reach statistical significance
Discrimination index versus vehicle (male OFA rats; 3 mg/kg p.o., p ≤ 0.05): significantly increased the discrimination index
Spontaneous alternation versus vehicle (male C57Bl/6 mice; 0.3 mg/kg i.p. acute, p≤0.05): improved the performance of spontaneous alternation
Spontaneous alternation versus vehicle (male C57Bl/6 mice; 1 mg/kg i.p. acute, p = 0.07): improved the performance of spontaneous alternation
Body temperature and behavior (male NMRI mice; 30, 100 and 300 mg/kg oral acute): no significant effect
Spontaneous epileptic seizures (male NMRI mice; up to 300 mg/kg p.o.): No occurrence
EC2X (Human AMPA receptors; concentration giving a two-fold increase in current amplitude): 4.77 µM
EC50 (Human AMPA receptors; potentiation of 10 μM AMPA-evoked current): 7.08 µM
